Literature values, collected in PMC8389614, “A Comparison of Acute Pharmacological Effects of Methylone and MDMA Administration in Humans and Oral Fluid Concentrations as Biomarkers of Exposure” (Biology, 2021).
Read-outs that look alike come from different tables or passages of the source.

Legend:
[1] = cited from earlier work; for Median overall OF/B ratio: oral fluid vs plasma
[2] = test system: 5-HT2A receptors; design: method as in PMID 25237120, PMID 23583454; details: significantly lower potencies than MDMA; cited from earlier work
[3] = test system: 5-HT1A receptor; design: method as in PMID 25237120, PMID 23583454; details: cited from earlier work
[4] = test system: CYP2D6; details: limited contribution of CYP1A2, CYP2B6, CYP2C19; cited from earlier work

CNC(C)Cc1ccc2c(c1)OCO2 (stereo not drawn) [MDMA, 3,4-methylenedioxymethamphetamine]
Maximum oral fluid to blood (OF/B) ratio ([1]; at 1.5 h after a 100 mg dose): 18.1 ± 7.9 | Median overall OF/B ratio ([1]; high dose 1.6 mg/kg): 6.0 | Median overall OF/B ratio ([1]; low dose 1.0 mg/kg): 5.2

CNC(C)C(=O)c1ccc2c(c1)OCO2 (stereo not drawn) [Methylone, 3,4-methylenedioxymethcathinone]
Affinity for binding 5-HT2A receptors [2]: some affinity | Activity at the 5-HT1A receptor [3]: partial agonist | Enzymes metabolizing the substance in the liver [4]: principally by the enzymatic activity of CYP2D6
